Measurements: patent US9795590B2, “Anti-inflammatory agents as virostatic compounds” (Panoptes Pharma GmbH, priority 2014, dated 2017)

Experiments:
[1] = system: Vaccina (vaccine virus, strain IHD-5); assay: antiviral assay vaccinia virus in primary human fibroblasts; assay type: cell-based; details: Orthopoxvirus vaccinia, Fibroblast, read-out: IC50 of virus replication Vaccina
Protocol: (§1) Antiviral assays were performed as described in the literature (Marschall, M. et al., 2000. Antimicrob. Agents Chemother. 44, 1588-1597; Marschall M. et al., 2012. Antimicrob. Agents Chemother. 56, 1135-1137; Kindsmüller et al., 2009. J. Virol. 83, 9045-9056; Rechter et al., 2006. Antiviral Res. 72, 197-206).

[2] = system: HAdV B03k; assay: virus yield assay HAdV B03k (clinical isolate) in A549; assay type: cell-based, human adenovirus; details: MOI 20, supernatant transfer 6 d post-infection, n=3
Protocol: (§2) A549 cells were infected at MOI 20 and continuously treated with the given concentrations of compound 1. Virus-containing supernatants were transferred to uninfected cells at 4 d^1, 6 d^2 or 2 d^3 post-infection, respectively, and used for quantitation of infectious virus. Percentages of virus-positive cells per total cells were determined on the basis of indirect immunofluorescence staining (monoclonal anti-adenovirus hexon protein antibody; Abcam B025-AD51/ab7428) by microscopic countings: n=4 for C02, C05, D19, D37; n=3 for B03k, E04k; n=1 for A31, B03, D08, E04.

[3] = system: HHV-6, human herpesvirus type 6A, strain U1102; assay: antiviral assay HHV-6 in J-JHAN; assay type: cell-based; details: n = 8, read-out: IC50 of virus replication HHV-6
Protocol: as §1

[4] = system: HSV-2, herpes simplex virus type 2, isolate 01-6332; assay: antiviral assay HSV-2 in Vero; assay type: cell-based; details: Human alphaherpesvirus 2, n = 4, read-out: IC50 of virus replication HSV-2
Protocol: as §1

[5] = system: HAdV A31; assay: virus yield assay HAdV A31 in A549; assay type: cell-based, human adenovirus; details: MOI 20, supernatant transfer 4 d post-infection, n=1
Protocol: as §2

[6] = system: EBV, Epstein-Barr virus, strain B95-8; assay: antiviral assay EBV in 293T (T81GFP); assay type: cell-based; details: human gammaherpesvirus 4, n = 4, read-out: IC50 of virus replication EBV
Protocol: as §1

[7] = system: HAdV D37; assay: virus yield assay HAdV D37 in A549; assay type: cell-based, human adenovirus; details: MOI 20, supernatant transfer 6 d post-infection, n=4
Protocol: as §2

[8] = molecular target: PI3K-α/-β/-γ/-δ; assay: kinase activity assay PI3K; assay type: biochemical; details: read-out: Inhibitory activity in vitro (IC50) PI3K-α/-β/-γ/-δ
Protocol: (§3) Pharmacological parameters of compound 1 (Table 2) were determined by standard procedures, i.e. DHODH and kinase activity assays were performed according to Davis et al., (1996. The immunosuppressive metabolite of leflunomide is a potent inhibitor of human dihydroorotate dehydrogenase.

[9] = system: HAdV D08; assay: virus yield assay HAdV D08 in A549; assay type: cell-based, human adenovirus; details: MOI 20, supernatant transfer 4 d post-infection, n=1
Protocol: as §2

[10] = system: 293T (T81GFP); assay: drug-induced cytotoxicity, microscopic evaluation, 293T (T81GFP); assay type: cell-based; details: EBV experiment
[11] = molecular target: DHODH (human) (Homo sapiens, UniProt Q02127); assay: DHODH in vitro enzymatic activity assay (human); assay type: biochemical
Protocol: as §3

[12] = molecular target: AKT-1/-2/-3; assay: kinase activity assay AKT; assay type: biochemical; details: read-out: Inhibitory activity in vitro (IC50) AKT-1/-2/-3
Protocol: as §3

[13] = system: J-JHAN; assay: drug-induced cytotoxicity, microscopic evaluation, J-JHAN; assay type: cell-based; details: HHV-6 experiment
[14] = system: HAdV C02; assay: virus yield assay HAdV C02 in A549; assay type: cell-based, human adenovirus; details: MOI 20, supernatant transfer 2 d post-infection, n=4
Protocol: as §2

[15] = system: HAdV E04k; assay: virus yield assay HAdV E04k (clinical isolate) in A549; assay type: cell-based, human adenovirus; details: MOI 20, supernatant transfer 6 d post-infection, n=3
Protocol: as §2

[16] = system: HAdV B03; assay: virus yield assay HAdV B03 in A549; assay type: cell-based, human adenovirus; details: MOI 20, supernatant transfer 6 d post-infection, n=1
Protocol: as §2

[17] = system: primary human fibroblasts; assay: drug-induced cytotoxicity, microscopic evaluation, primary human fibroblasts; assay type: cell-based
[18] = system: Vero; assay: drug-induced cytotoxicity, microscopic evaluation, Vero; assay type: cell-based
[19] = system: VZV, varicella zoster virus, strain Oka; assay: antiviral assay VZV in primary human fibroblasts; assay type: cell-based; details: Human alphaherpesvirus 3, Fibroblast, read-out: IC50 of virus replication VZV
Protocol: as §1

[20] = system: HAdV D19; assay: virus yield assay HAdV D19 in A549; assay type: cell-based, human adenovirus; details: MOI 20, supernatant transfer 4 d post-infection, n=4
Protocol: as §2

[21] = system: HAdV E04; assay: virus yield assay HAdV E04 in A549; assay type: cell-based, human adenovirus; details: MOI 20, supernatant transfer 6 d post-infection, n=1
Protocol: as §2

[22] = system: HAdV C05; assay: virus yield assay HAdV C05 in A549; assay type: cell-based, human adenovirus; details: MOI 20, supernatant transfer 2 d post-infection, n=4
Protocol: as §2

[23] = molecular target: JAK-1/-2/-3; assay: kinase activity assay JAK; assay type: biochemical; details: read-out: Inhibitory activity in vitro (IC50) JAK-1/-2/-3
Protocol: as §3

[24] = system: HSV-1, herpes simplex virus type 1, strain 166v VP22-GFP; assay: GFP-based reporter assay HSV-1 in Vero; assay type: cell-based; details: Human alphaherpesvirus 1, Vero, read-out: IC50 of virus replication HSV-1
Protocol: as §1

[25] = system: Human adenovirus type 2 (HAdV-2); assay: plaque reduction assay HAdV-2 in A549; assay type: cell-based; details: Human mastadenovirus C, A549, n = 8, read-out: IC50 antiviral activity against HAdV-2
Protocol: as §1

[26] = molecular target: DHODH (mouse) (Mus musculus, UniProt O35435); assay: DHODH in vitro enzymatic activity assay (mouse); assay type: biochemical; details: read-out: Inhibitory activity in vitro (IC50) DHODH (mouse)
[27] = system: A549; assay: drug-induced cytotoxicity, microscopic evaluation, A549; assay type: cell-based; details: HAdV-2 experiment, A549, 1-10 μM

Sequence of DHODH (human) (Q02127 whole entry): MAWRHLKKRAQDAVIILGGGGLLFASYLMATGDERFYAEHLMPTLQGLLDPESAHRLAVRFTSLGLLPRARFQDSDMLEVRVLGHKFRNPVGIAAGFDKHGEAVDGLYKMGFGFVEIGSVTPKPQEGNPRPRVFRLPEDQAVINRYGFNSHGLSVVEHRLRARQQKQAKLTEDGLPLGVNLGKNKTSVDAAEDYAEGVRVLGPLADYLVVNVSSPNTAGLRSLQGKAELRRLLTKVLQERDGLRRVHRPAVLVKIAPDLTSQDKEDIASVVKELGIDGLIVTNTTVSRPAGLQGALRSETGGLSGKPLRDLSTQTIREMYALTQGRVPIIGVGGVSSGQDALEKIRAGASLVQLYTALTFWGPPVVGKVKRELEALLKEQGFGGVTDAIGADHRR
Sequence of DHODH (mouse) (O35435 whole entry): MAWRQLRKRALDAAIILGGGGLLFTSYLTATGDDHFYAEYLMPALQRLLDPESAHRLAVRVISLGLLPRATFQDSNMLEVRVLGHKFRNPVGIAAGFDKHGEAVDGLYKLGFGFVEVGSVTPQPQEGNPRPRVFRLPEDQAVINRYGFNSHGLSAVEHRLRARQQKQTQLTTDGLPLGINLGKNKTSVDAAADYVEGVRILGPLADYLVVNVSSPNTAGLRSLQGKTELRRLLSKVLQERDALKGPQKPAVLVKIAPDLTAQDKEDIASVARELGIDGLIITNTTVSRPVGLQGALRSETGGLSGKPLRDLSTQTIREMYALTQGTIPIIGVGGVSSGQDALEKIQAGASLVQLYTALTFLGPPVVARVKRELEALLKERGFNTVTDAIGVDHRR

## O=C(Nc1c(F)c(F)c(-c2cccc(OC(F)(F)F)c2)c(F)c1F)c1ccsc1C(=O)O [compound 1, 3-(2,3,5,6-tetrafluoro-3′-trifluoromethoxy-biphenyl-4-ylcarbamoyl)-thiophene-2-carboxylic acid]
[1]
  IC50: 9850 ± 6610 nM
[2]; 0.37 μM
  virus-positive cells (0 μM = 100), HAdV B03k: 70%
[2]; 1.11 μM
  virus-positive cells (0 μM = 100), HAdV B03k: 11%
[3]
  IC50: 1550 ± 310 nM
[4]
  IC50: > 10000 nM
[5]; 0.37 μM
  virus-positive cells (0 μM = 100), HAdV A31: 72%
[5]; 1.11 μM
  virus-positive cells (0 μM = 100), HAdV A31: 3%
[6]
  IC50: > 10000 nM
[7]; 0.37 μM
  virus-positive cells (0 μM = 100), HAdV D37: 96%
[7]; 1.11 μM
  virus-positive cells (0 μM = 100), HAdV D37: 3%
[8]
  IC50: > 1000 nM
[9]; 0.37 μM
  virus-positive cells (0 μM = 100), HAdV D08: 6%
[9]; 1.11 μM
  virus-positive cells (0 μM = 100), HAdV D08: 0%
[10]
  Cytotoxicity [1-10 μM]: none
[11]; purified human DHODH, read-out: Inhibitory activity in vitro (IC50) DHODH (human)
  IC50: 1.5 ± 0.2 nM
[12]
  IC50: > 15000 nM
[13]
  Cytotoxicity [1-10 μM]: none
[14]; 0.37 μM
  virus-positive cells (0 μM = 100), HAdV C02: 100%
[14]; 1.11 μM
  virus-positive cells (0 μM = 100), HAdV C02: 9%
[15]; 0.37 μM
  virus-positive cells (0 μM = 100), HAdV E04k: 115%
[15]; 1.11 μM
  virus-positive cells (0 μM = 100), HAdV E04k: 9%
[16]; 0.37 μM
  virus-positive cells (0 μM = 100), HAdV B03: 127%
[16]; 1.11 μM
  virus-positive cells (0 μM = 100), HAdV B03: 29%
[17]; VZV experiment
  Cytotoxicity [1-10 μM]: none
[17]; Vaccina experiment
  Cytotoxicity [1-10 μM]: none
[18]; HSV-1 experiment
  Cytotoxicity [1-10 μM]: none
[18]; HSV-2 experiment
  Cytotoxicity [1-10 μM]: none
[19]
  IC50: 3550 ± 260 nM
[20]; 0.37 μM
  virus-positive cells (0 μM = 100), HAdV D19: 81%
[20]; 1.11 μM
  virus-positive cells (0 μM = 100), HAdV D19: 4%
[21]; 0.37 μM
  virus-positive cells (0 μM = 100), HAdV E04: 128%
[21]; 1.11 μM
  virus-positive cells (0 μM = 100), HAdV E04: 23%
[22]; 0.37 μM
  virus-positive cells (0 μM = 100), HAdV C05: 82%
[22]; 1.11 μM
  virus-positive cells (0 μM = 100), HAdV C05: 6%
[23]
  IC50: > 10000 nM
[24]
  IC50: > 10000 nM
[25]
  IC50: 560 ± 20 nM
[26]
  IC50: 3.2 ± 0.8 nM
[27]
  Cytotoxicity [1-10 μM]: None
[27]; listed as Compound 1
  Cytotoxicity [1-10 μM]: none

## Nc1nc2c(ncn2COC(CO)CO)c(=O)[nH]1 [GCV, reference compound]
[11]; at 10 μM, duplicate testings
  DHODH activity remaining: 100%
